According to ChEMBL document CHEMBL1145498, “A systematic interaction map of validated kinase inhibitors with Ser/Thr kinases” (Proc Natl Acad Sci U S A, 2007):

What follows are compounds tested against Serine/threonine-protein kinase 26 (Homo sapiens) (UniProt Q9P289).
Serine/threonine-protein kinase 26 (Homo sapiens), sequence (Q9P289 2-416 limits assumed): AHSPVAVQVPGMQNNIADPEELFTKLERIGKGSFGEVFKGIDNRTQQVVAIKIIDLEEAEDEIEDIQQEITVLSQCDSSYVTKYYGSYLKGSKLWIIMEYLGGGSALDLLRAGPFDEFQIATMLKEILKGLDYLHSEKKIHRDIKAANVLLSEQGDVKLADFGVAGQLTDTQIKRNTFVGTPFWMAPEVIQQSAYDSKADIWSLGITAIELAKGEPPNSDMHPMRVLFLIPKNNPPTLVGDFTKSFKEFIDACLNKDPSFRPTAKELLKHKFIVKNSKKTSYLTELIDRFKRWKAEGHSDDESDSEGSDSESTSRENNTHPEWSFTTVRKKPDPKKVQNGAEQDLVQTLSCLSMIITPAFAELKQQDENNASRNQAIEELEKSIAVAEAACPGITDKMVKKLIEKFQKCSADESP

ΔTm [°C] | SMILES
-4.9 | CC(C)(C)n1nc(-c2cccc3ccccc23)c2c(N)ncnc21
2.4 | O=c1c2ccccc2[nH]c(=S)n1CCN1CCC(=C(c2ccc(F)cc2)c2ccc(F)cc2)CC1 [DIACYLGLYCEROL KINASE INHIBITOR II]

SMILES | ΔTm [°C]
N=C(N)NCCNS(=O)(=O)c1cccc2cnccc12 | -0.3

These compounds were tested against T1, Mitogen-activated protein kinase kinase kinase 5 (Homo sapiens) (UniProt Q99683).
T1 sequence (whole entry): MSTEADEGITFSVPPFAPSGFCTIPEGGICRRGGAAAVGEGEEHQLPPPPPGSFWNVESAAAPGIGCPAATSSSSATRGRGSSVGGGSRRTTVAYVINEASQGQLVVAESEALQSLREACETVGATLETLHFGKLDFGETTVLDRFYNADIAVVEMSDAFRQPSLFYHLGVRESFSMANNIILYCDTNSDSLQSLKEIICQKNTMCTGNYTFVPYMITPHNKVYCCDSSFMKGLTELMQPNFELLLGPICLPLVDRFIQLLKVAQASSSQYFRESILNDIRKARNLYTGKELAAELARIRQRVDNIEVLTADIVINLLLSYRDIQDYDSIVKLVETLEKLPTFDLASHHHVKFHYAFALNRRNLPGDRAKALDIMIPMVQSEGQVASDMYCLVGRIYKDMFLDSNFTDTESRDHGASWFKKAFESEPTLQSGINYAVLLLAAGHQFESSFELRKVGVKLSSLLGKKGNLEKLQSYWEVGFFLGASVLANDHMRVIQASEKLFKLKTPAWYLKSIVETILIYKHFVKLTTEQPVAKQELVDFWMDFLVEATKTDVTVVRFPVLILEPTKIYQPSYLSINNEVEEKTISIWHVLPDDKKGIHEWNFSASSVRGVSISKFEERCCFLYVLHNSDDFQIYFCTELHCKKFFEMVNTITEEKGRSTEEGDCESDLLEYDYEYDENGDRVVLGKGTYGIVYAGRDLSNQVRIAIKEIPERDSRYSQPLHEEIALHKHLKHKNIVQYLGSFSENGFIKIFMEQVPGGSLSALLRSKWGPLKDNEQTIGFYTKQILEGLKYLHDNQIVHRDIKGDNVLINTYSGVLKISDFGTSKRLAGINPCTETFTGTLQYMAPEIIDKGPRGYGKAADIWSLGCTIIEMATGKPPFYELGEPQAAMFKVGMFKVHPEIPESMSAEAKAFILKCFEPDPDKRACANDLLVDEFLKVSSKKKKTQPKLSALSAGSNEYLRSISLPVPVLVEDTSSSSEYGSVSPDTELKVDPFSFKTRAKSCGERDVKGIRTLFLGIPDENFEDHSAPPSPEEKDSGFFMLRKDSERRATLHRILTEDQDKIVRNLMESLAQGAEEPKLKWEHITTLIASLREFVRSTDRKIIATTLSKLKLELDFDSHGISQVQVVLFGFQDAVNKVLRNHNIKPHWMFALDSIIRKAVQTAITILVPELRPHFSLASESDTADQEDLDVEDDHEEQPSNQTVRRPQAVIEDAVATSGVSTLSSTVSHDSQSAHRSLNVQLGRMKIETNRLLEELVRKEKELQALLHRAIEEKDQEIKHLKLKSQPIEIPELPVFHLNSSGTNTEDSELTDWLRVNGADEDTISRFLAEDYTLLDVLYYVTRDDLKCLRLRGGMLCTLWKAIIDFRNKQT

ΔTm [°C] | SMILES
0.8 | CC(C)(C)n1nc(-c2cccc3ccccc23)c2c(N)ncnc21
-0.7 | O=c1c2ccccc2[nH]c(=S)n1CCN1CCC(=C(c2ccc(F)cc2)c2ccc(F)cc2)CC1 [DIACYLGLYCEROL KINASE INHIBITOR II]

SMILES | ΔTm [°C]
N=C(N)NCCNS(=O)(=O)c1cccc2cnccc12 | 0.1

The compounds below were run against cAMP-dependent protein kinase catalytic subunit alpha (Homo sapiens) (UniProt P17612).

ΔTm [°C] | SMILES
2.1 | CC(C)(C)n1nc(-c2cccc3ccccc23)c2c(N)ncnc21
0.8 | O=c1c2ccccc2[nH]c(=S)n1CCN1CCC(=C(c2ccc(F)cc2)c2ccc(F)cc2)CC1 [DIACYLGLYCEROL KINASE INHIBITOR II]

SMILES | ΔTm [°C]
N=C(N)NCCNS(=O)(=O)c1cccc2cnccc12 | 1.7

These compounds were tested against Serine/threonine-protein kinase 38 (Homo sapiens) (UniProt Q15208).
Serine/threonine-protein kinase 38 (Homo sapiens), sequence (Q15208 2-465 limits assumed): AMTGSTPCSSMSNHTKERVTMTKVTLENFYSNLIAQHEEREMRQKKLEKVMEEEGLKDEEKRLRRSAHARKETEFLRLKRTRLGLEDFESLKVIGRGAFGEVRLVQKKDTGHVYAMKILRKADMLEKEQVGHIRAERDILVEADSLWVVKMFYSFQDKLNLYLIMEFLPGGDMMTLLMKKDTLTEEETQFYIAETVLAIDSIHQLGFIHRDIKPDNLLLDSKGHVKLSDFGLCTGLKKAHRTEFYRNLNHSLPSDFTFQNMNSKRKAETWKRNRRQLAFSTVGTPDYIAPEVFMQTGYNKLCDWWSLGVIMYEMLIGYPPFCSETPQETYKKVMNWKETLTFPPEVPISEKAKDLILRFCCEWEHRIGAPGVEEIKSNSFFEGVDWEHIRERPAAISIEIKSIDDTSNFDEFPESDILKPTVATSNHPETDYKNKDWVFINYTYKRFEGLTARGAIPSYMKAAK

ΔTm [°C] | SMILES
0.4 | CC(C)(C)n1nc(-c2cccc3ccccc23)c2c(N)ncnc21
0.2 | O=c1c2ccccc2[nH]c(=S)n1CCN1CCC(=C(c2ccc(F)cc2)c2ccc(F)cc2)CC1 [DIACYLGLYCEROL KINASE INHIBITOR II]

SMILES | ΔTm [°C]
N=C(N)NCCNS(=O)(=O)c1cccc2cnccc12 | 0.1

What follows are compounds tested against Calcium/calmodulin-dependent protein kinase kinase 2 (Homo sapiens, UniProt Q96RR4).
Calcium/calmodulin-dependent protein kinase kinase 2, sequence (Q96RR4 2-588 limits assumed): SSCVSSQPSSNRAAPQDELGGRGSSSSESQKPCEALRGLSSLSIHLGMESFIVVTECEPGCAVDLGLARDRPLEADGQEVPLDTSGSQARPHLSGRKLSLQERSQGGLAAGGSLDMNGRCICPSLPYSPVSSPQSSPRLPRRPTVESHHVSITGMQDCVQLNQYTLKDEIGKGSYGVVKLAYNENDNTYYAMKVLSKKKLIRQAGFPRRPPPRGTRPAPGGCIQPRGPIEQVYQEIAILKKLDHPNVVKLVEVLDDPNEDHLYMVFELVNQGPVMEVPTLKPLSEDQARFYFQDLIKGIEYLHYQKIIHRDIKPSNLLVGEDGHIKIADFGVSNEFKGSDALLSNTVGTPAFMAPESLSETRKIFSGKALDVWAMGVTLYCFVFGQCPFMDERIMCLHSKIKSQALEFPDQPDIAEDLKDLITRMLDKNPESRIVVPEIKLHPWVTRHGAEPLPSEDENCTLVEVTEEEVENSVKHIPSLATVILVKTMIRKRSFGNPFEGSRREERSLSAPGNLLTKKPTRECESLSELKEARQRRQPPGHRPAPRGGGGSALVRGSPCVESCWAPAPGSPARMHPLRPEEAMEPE

ΔTm [°C] | SMILES
0.7 | CC(C)(C)n1nc(-c2cccc3ccccc23)c2c(N)ncnc21
1.8 | O=c1c2ccccc2[nH]c(=S)n1CCN1CCC(=C(c2ccc(F)cc2)c2ccc(F)cc2)CC1 [DIACYLGLYCEROL KINASE INHIBITOR II]

SMILES | ΔTm [°C]
N=C(N)NCCNS(=O)(=O)c1cccc2cnccc12 | -0.1

Each compound was assayed against Serine/threonine-protein kinase 10 (Homo sapiens) (UniProt O94804).
Serine/threonine-protein kinase 10 (Homo sapiens), sequence (O94804 whole entry, looked up): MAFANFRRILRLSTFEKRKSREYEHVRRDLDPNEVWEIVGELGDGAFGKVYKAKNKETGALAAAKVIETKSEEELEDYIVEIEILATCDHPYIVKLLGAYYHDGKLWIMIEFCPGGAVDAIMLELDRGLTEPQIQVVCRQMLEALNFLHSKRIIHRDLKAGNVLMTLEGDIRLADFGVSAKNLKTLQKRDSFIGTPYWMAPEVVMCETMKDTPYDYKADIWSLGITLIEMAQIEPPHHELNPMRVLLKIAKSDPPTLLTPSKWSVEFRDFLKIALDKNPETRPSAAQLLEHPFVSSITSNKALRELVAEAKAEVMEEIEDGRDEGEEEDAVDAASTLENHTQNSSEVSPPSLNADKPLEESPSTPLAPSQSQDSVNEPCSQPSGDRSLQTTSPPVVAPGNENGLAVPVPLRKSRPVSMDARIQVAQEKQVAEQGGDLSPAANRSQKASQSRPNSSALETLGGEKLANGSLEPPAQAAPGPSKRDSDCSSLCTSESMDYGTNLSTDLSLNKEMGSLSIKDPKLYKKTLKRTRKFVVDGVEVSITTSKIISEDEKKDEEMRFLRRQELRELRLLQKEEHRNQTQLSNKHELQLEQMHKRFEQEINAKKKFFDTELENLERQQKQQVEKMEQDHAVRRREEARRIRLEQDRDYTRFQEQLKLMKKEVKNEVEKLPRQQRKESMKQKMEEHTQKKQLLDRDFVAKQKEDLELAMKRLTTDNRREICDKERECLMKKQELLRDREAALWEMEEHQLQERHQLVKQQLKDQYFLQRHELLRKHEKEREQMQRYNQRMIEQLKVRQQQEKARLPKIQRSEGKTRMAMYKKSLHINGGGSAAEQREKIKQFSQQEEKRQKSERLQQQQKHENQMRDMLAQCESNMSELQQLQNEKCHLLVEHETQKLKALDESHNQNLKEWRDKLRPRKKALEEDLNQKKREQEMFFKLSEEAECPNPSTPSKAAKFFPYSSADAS

ΔTm [°C] | SMILES
4 | CC(C)(C)n1nc(-c2cccc3ccccc23)c2c(N)ncnc21
3.6 | O=c1c2ccccc2[nH]c(=S)n1CCN1CCC(=C(c2ccc(F)cc2)c2ccc(F)cc2)CC1 [DIACYLGLYCEROL KINASE INHIBITOR II]

SMILES | ΔTm [°C]
N=C(N)NCCNS(=O)(=O)c1cccc2cnccc12 | 0.7

What follows are compounds tested against Serine/threonine-protein kinase PAK 6 (Homo sapiens) (UniProt Q9NQU5).
Serine/threonine-protein kinase PAK 6 (Homo sapiens), sequence (Q9NQU5 whole entry, looked up): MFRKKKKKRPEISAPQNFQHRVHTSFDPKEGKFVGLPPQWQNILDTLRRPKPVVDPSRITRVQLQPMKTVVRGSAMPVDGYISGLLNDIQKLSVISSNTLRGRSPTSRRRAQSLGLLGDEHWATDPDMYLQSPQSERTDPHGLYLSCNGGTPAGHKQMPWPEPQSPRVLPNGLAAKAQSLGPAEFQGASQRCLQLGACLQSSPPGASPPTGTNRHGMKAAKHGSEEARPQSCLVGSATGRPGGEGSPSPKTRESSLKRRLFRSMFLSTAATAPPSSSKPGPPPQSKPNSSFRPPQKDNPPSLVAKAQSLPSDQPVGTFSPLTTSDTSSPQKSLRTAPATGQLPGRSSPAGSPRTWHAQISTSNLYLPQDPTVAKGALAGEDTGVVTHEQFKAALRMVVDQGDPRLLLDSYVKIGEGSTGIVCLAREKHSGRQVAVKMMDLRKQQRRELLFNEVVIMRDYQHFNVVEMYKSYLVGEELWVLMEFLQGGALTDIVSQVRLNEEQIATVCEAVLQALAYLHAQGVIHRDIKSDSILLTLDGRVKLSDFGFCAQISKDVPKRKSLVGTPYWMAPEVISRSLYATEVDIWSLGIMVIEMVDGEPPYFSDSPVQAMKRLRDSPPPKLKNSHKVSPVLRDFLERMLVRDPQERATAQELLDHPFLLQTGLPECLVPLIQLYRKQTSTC

ΔTm [°C] | SMILES
0.3 | CC(C)(C)n1nc(-c2cccc3ccccc23)c2c(N)ncnc21
-0.1 | O=c1c2ccccc2[nH]c(=S)n1CCN1CCC(=C(c2ccc(F)cc2)c2ccc(F)cc2)CC1 [DIACYLGLYCEROL KINASE INHIBITOR II]

SMILES | ΔTm [°C]
N=C(N)NCCNS(=O)(=O)c1cccc2cnccc12 | 0

The compounds below were run against Casein kinase I isoform gamma-3 (Homo sapiens) (UniProt Q9Y6M4).

ΔTm [°C] | SMILES
0.5 | CC(C)(C)n1nc(-c2cccc3ccccc23)c2c(N)ncnc21
-1.3 | O=c1c2ccccc2[nH]c(=S)n1CCN1CCC(=C(c2ccc(F)cc2)c2ccc(F)cc2)CC1 [DIACYLGLYCEROL KINASE INHIBITOR II]

SMILES | ΔTm [°C]
N=C(N)NCCNS(=O)(=O)c1cccc2cnccc12 | 0.3

The compounds below were run against Tyrosine-protein kinase JAK1 (Homo sapiens) (UniProt P23458).

ΔTm [°C] | SMILES
-0.1 | CC(C)(C)n1nc(-c2cccc3ccccc23)c2c(N)ncnc21
0.6 | O=c1c2ccccc2[nH]c(=S)n1CCN1CCC(=C(c2ccc(F)cc2)c2ccc(F)cc2)CC1 [DIACYLGLYCEROL KINASE INHIBITOR II]

SMILES | ΔTm [°C]
N=C(N)NCCNS(=O)(=O)c1cccc2cnccc12 | -0.3

The compounds below were run against T2, Serine/threonine-protein kinase VRK3 (Homo sapiens) (UniProt Q8IV63).
T2 sequence (whole entry): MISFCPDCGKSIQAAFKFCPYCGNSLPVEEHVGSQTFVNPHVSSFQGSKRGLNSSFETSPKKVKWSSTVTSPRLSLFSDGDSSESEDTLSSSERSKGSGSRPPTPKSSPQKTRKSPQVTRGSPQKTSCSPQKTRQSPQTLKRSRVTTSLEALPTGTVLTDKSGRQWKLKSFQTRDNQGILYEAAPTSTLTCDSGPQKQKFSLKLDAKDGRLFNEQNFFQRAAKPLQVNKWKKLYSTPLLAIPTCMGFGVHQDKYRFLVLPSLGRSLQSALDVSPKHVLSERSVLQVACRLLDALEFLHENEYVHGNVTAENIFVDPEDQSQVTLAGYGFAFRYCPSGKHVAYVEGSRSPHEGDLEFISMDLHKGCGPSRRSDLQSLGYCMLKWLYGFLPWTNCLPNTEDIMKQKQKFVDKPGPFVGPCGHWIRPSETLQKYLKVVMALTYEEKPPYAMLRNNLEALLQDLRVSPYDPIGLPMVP

ΔTm [°C] | SMILES
0.2 | CC(C)(C)n1nc(-c2cccc3ccccc23)c2c(N)ncnc21
-0.6 | O=c1c2ccccc2[nH]c(=S)n1CCN1CCC(=C(c2ccc(F)cc2)c2ccc(F)cc2)CC1 [DIACYLGLYCEROL KINASE INHIBITOR II]

SMILES | ΔTm [°C]
N=C(N)NCCNS(=O)(=O)c1cccc2cnccc12 | 0.3

Each compound was assayed against 5'-AMP-activated protein kinase catalytic subunit alpha-2 (Homo sapiens) (UniProt P54646).
5'-AMP-activated protein kinase catalytic subunit alpha-2 (Homo sapiens), sequence (P54646 whole entry, looked up): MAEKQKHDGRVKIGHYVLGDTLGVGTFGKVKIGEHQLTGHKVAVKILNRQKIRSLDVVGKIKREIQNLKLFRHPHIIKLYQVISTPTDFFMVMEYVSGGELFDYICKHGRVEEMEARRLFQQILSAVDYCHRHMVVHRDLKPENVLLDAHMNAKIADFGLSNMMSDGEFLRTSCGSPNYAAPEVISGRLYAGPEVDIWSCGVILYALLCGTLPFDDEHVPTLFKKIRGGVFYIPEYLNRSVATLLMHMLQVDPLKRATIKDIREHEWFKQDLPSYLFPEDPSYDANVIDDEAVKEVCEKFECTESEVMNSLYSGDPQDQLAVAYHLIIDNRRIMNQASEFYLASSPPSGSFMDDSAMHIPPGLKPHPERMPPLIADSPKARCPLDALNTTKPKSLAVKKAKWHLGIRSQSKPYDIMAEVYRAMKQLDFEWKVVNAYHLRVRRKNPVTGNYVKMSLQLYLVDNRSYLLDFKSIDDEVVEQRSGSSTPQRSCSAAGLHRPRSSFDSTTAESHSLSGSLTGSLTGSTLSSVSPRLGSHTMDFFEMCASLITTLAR

ΔTm [°C] | SMILES
0 | CC(C)(C)n1nc(-c2cccc3ccccc23)c2c(N)ncnc21
-3.3 | O=c1c2ccccc2[nH]c(=S)n1CCN1CCC(=C(c2ccc(F)cc2)c2ccc(F)cc2)CC1 [DIACYLGLYCEROL KINASE INHIBITOR II]

SMILES | ΔTm [°C]
N=C(N)NCCNS(=O)(=O)c1cccc2cnccc12 | 0.5

These compounds were tested against T3, Serine/threonine-protein kinase 17A (Homo sapiens) (UniProt Q9UEE5).
T3 sequence (whole entry): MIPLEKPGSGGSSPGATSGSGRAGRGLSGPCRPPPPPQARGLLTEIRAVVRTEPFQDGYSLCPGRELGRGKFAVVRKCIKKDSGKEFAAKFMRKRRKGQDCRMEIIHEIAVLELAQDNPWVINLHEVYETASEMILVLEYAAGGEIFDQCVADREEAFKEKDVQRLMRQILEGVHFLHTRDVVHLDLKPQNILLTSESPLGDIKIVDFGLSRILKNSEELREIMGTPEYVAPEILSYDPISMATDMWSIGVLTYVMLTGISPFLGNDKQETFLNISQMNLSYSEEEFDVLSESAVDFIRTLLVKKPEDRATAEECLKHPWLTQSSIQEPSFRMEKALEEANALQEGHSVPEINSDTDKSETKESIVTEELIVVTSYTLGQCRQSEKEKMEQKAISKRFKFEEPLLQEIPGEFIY

ΔTm [°C] | SMILES
2 | CC(C)(C)n1nc(-c2cccc3ccccc23)c2c(N)ncnc21
0.5 | O=c1c2ccccc2[nH]c(=S)n1CCN1CCC(=C(c2ccc(F)cc2)c2ccc(F)cc2)CC1 [DIACYLGLYCEROL KINASE INHIBITOR II]

SMILES | ΔTm [°C]
N=C(N)NCCNS(=O)(=O)c1cccc2cnccc12 | 0.6

The compounds below were run against Serine/threonine-protein kinase pim-2 (Homo sapiens, UniProt Q9P1W9).
Serine/threonine-protein kinase pim-2, sequence (Q9P1W9 whole entry, looked up): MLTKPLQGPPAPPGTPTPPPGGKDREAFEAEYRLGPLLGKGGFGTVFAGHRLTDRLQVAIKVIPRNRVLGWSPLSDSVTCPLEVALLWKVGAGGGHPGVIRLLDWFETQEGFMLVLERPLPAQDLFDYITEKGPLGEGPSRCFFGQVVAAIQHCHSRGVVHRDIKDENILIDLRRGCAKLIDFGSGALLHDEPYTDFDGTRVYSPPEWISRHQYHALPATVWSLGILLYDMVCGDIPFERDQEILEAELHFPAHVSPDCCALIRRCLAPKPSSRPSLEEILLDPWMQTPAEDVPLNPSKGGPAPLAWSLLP

ΔTm [°C] | SMILES
-0.2 | CC(C)(C)n1nc(-c2cccc3ccccc23)c2c(N)ncnc21
1.4 | O=c1c2ccccc2[nH]c(=S)n1CCN1CCC(=C(c2ccc(F)cc2)c2ccc(F)cc2)CC1 [DIACYLGLYCEROL KINASE INHIBITOR II]

SMILES | ΔTm [°C]
N=C(N)NCCNS(=O)(=O)c1cccc2cnccc12 | 0.6

The compounds below were run against Cyclin-dependent kinase 16 (Homo sapiens) (UniProt Q00536).
Cyclin-dependent kinase 16 (Homo sapiens), sequence (Q00536 whole entry): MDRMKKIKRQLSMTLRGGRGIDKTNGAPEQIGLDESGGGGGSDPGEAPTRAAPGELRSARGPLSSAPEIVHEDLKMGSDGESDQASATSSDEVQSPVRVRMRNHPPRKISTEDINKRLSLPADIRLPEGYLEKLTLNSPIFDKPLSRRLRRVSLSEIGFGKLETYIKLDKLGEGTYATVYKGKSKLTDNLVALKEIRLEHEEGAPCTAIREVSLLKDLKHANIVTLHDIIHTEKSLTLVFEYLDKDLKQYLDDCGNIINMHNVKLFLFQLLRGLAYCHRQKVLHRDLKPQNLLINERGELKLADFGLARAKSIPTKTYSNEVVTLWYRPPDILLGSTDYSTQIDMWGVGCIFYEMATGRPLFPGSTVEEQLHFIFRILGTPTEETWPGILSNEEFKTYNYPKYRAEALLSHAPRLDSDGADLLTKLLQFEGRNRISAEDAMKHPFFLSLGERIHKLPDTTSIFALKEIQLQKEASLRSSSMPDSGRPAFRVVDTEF

ΔTm [°C] | SMILES
-0.4 | CC(C)(C)n1nc(-c2cccc3ccccc23)c2c(N)ncnc21
-0.7 | O=c1c2ccccc2[nH]c(=S)n1CCN1CCC(=C(c2ccc(F)cc2)c2ccc(F)cc2)CC1 [DIACYLGLYCEROL KINASE INHIBITOR II]

SMILES | ΔTm [°C]
N=C(N)NCCNS(=O)(=O)c1cccc2cnccc12 | -0.7

These compounds were tested against Serine/threonine-protein kinase Nek6 (Homo sapiens) (UniProt Q9HC98).
Serine/threonine-protein kinase Nek6 (Homo sapiens), sequence (Q9HC98 whole entry): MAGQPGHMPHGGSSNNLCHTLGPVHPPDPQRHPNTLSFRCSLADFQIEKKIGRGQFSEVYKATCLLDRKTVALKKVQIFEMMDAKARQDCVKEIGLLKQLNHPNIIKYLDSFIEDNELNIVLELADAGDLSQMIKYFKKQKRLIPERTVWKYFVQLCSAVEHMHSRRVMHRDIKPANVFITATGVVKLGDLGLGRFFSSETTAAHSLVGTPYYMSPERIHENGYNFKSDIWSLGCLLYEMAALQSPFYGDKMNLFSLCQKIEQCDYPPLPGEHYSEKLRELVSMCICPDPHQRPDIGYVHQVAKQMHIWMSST

ΔTm [°C] | SMILES
0.1 | CC(C)(C)n1nc(-c2cccc3ccccc23)c2c(N)ncnc21
0.1 | O=c1c2ccccc2[nH]c(=S)n1CCN1CCC(=C(c2ccc(F)cc2)c2ccc(F)cc2)CC1 [DIACYLGLYCEROL KINASE INHIBITOR II]

SMILES | ΔTm [°C]
N=C(N)NCCNS(=O)(=O)c1cccc2cnccc12 | 0.2
